Measured values: PubChem BioAssay (NCI)
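Each compound was tested at five concentrations against cells in 96-well plates for 48 hours. Definition used: TGI = concentration required for complete inhibition of growth.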

Experiments:
Test in all cases: NCI tumour cell line growth inhibition, 48 h
IGROV1 ovarian = tested on: IGROV1 ovarian
COLO 205 colon = tested on: COLO 205 colon
SK-MEL-5 melanoma = tested on: SK-MEL-5 melanoma
SK-MEL-28 melanoma = tested on: SK-MEL-28 melanoma
A549 NSCLC = tested on: A549 NSCLC
OVCAR-5 ovarian = tested on: OVCAR-5 ovarian
NCI-H23 lung = tested on: NCI-H23 lung
MOLT-4 leukemia = tested on: MOLT-4 leukemia
CAKI-1 renal = tested on: CAKI-1 renal
MALME-3M melanoma = tested on: MALME-3M melanoma
HOP-92 NSCLC = tested on: HOP-92 NSCLC
CCRF-CEM leukemia = tested on: CCRF-CEM leukemia
UACC-62 melanoma = tested on: UACC-62 melanoma
NCI/ADR-RES ovarian = tested on: NCI/ADR-RES ovarian
SF-295 CNS = tested on: SF-295 CNS
RXF 393 renal = tested on: RXF 393 renal
SF-268 CNS = tested on: SF-268 CNS
ACHN renal = tested on: ACHN renal
NCI-H226 lung = tested on: NCI-H226 lung
TK-10 renal = tested on: TK-10 renal

With `O=C(O)C1Cc2c([nH]c3ccccc23)C=N1` (stereo not given) the TGI (IGROV1 ovarian) was over 100 µM, the TGI (COLO 205 colon) was over 100 µM and the TGI (SK-MEL-5 melanoma) was over 100 µM. For the same compound, the TGI (SK-MEL-28 melanoma) was over 100 µM, the TGI (A549 NSCLC) was over 100 µM and the TGI (OVCAR-5 ovarian) was over 100 µM. For the same compound, the TGI (NCI-H23 lung) was over 100 µM, the TGI (MOLT-4 leukemia) was over 100 µM and the TGI (CAKI-1 renal) was over 100 µM. For the same compound, the TGI (MALME-3M melanoma) was over 100 µM, the TGI (HOP-92 NSCLC) was over 100 µM and the TGI (CCRF-CEM leukemia) was over 100 µM. For the same compound, the TGI (UACC-62 melanoma) was over 100 µM, the TGI (NCI/ADR-RES ovarian) was over 100 µM and the TGI (SF-295 CNS) was over 100 µM. The TGI (RXF 393 renal) was over 100 µM and the TGI (SF-268 CNS) was over 100 µM.

`COC1CC(OC2CCC3(C)C(CCC45CCC(C6=CC(=O)OC6)C(C)(CCC43)C5=O)C2)OC(C)C1O` (stereo not given) was tested, and the TGI (IGROV1 ovarian) was over 100 µM, the TGI (COLO 205 colon) was over 100 µM and the TGI (SK-MEL-5 melanoma) was 41.9 µM. For the same compound, the TGI (SK-MEL-28 melanoma) was over 100 µM, the TGI (A549 NSCLC) was over 100 µM and the TGI (OVCAR-5 ovarian) was over 100 µM. For the same compound, the TGI (NCI-H23 lung) was 48.3 µM, the TGI (ACHN renal) was 41.1 µM and the TGI (NCI-H226 lung) was over 100 µM. It also gave a TGI (MOLT-4 leukemia) of 65.7 µM, a TGI (CAKI-1 renal) of 80.1 µM and a TGI (HOP-92 NSCLC) of over 100 µM. The TGI (CCRF-CEM leukemia) was 50.6 µM, the TGI (TK-10 renal) was over 100 µM and the TGI (UACC-62 melanoma) was over 100 µM. The TGI (NCI/ADR-RES ovarian) was over 100 µM, the TGI (SF-295 CNS) was over 100 µM and the TGI (RXF 393 renal) was 89.4 µM. The TGI (SF-268 CNS) was 44 µM.

`NNc1nc2ccccc2s1` showed a TGI (IGROV1 ovarian) of over 100 µM, a TGI (COLO 205 colon) of over 100 µM and a TGI (SK-MEL-5 melanoma) of over 100 µM. It also gave a TGI (SK-MEL-28 melanoma) of over 100 µM, a TGI (A549 NSCLC) of over 100 µM and a TGI (OVCAR-5 ovarian) of over 100 µM. For the same compound, the TGI (NCI-H23 lung) was over 100 µM, the TGI (ACHN renal) was over 100 µM and the TGI (NCI-H226 lung) was over 100 µM. For the same compound, the TGI (MOLT-4 leukemia) was over 100 µM, the TGI (CAKI-1 renal) was over 100 µM and the TGI (MALME-3M melanoma) was over 100 µM. The TGI (HOP-92 NSCLC) was over 100 µM, the TGI (CCRF-CEM leukemia) was over 100 µM and the TGI (TK-10 renal) was over 100 µM. For the same compound, the TGI (UACC-62 melanoma) was over 100 µM, the TGI (NCI/ADR-RES ovarian) was over 100 µM and the TGI (RXF 393 renal) was over 100 µM. It also gave a TGI (SF-268 CNS) of over 100 µM.

`O=C1C(=O)c2ccccc2C(O)=C1CN(CCCl)CCCl` was tested, and the TGI (IGROV1 ovarian) was 77.9 µM, the TGI (SK-MEL-5 melanoma) was over 100 µM and the TGI (SK-MEL-28 melanoma) was over 100 µM. The TGI (A549 NSCLC) was over 100 µM, the TGI (OVCAR-5 ovarian) was over 100 µM and the TGI (NCI-H23 lung) was over 100 µM. For the same compound, the TGI (ACHN renal) was over 100 µM, the TGI (MOLT-4 leukemia) was over 100 µM and the TGI (CAKI-1 renal) was over 100 µM. The TGI (MALME-3M melanoma) was over 100 µM, the TGI (HOP-92 NSCLC) was over 100 µM and the TGI (CCRF-CEM leukemia) was over 100 µM. It also gave a TGI (TK-10 renal) of over 100 µM, a TGI (UACC-62 melanoma) of over 100 µM and a TGI (SF-295 CNS) of over 100 µM. For the same compound, the TGI (RXF 393 renal) was over 100 µM and the TGI (SF-268 CNS) was over 100 µM.

Compound `CC12CCC(C(=O)N3CC=CCC3)(OC1=O)C2(C)C` (stereo not given) has a TGI (IGROV1 ovarian) of over 100 µM, a TGI (COLO 205 colon) of over 100 µM and a TGI (SK-MEL-5 melanoma) of over 100 µM. It also gave a TGI (SK-MEL-28 melanoma) of over 100 µM, a TGI (A549 NSCLC) of over 100 µM and a TGI (OVCAR-5 ovarian) of over 100 µM. It also gave a TGI (NCI-H23 lung) of over 100 µM, a TGI (NCI-H226 lung) of over 100 µM and a TGI (MOLT-4 leukemia) of over 100 µM. For the same compound, the TGI (CAKI-1 renal) was over 100 µM, the TGI (MALME-3M melanoma) was over 100 µM and the TGI (HOP-92 NSCLC) was over 100 µM. It also gave a TGI (CCRF-CEM leukemia) of over 100 µM, a TGI (UACC-62 melanoma) of over 100 µM and a TGI (NCI/ADR-RES ovarian) of over 100 µM. It also gave a TGI (SF-295 CNS) of over 100 µM, a TGI (RXF 393 renal) of over 100 µM and a TGI (SF-268 CNS) of over 100 µM.
